In patent US20250127863A1, “ANTIMICROBIAL PEPTIDE FOR ONYCHOMYCOSIS” (CBMR SCIENTIFIC NANOSCIENCE B.V., priority 2019, published 2025):
No end group written: not given here.

Tests used:
Test in all cases: MIC90 growth inhibition
C. parapsilosis CBS #61 = format: cell-based, Candida parapsilosis; conditions: RPMI 1640 one-fourth strength
Description: (§1) The minimum inhibitory concentration (MIC) value is defined as the lowest sample concentration that inhibited growth. In the Examples, the MIC90 value is presented, which MIC90 values are determined according to established methods known to the person with the skills in the relevant art. Experiments; 1×10E5 CFU of various strains/ml were incubated for 24-48 h at 37° C. in 4× diluted medium of RPMI 1640 with the indicated concentrations of antimicrobial peptide hLF(1-11) [SEQ ID NO: 3]. As controls various strains cells were incubated for 24-48 h at 37° C. with no agent (antimicrobial peptide), and subsequently, growth of the microbial organism (e.g. yeast, bacterium) was monitored by using spectrophotometry with a spectrophotometer at 620 nm. […] ND=Not done. Representative single assay data are listed rather than a range, for clarity reasons and for ease of comparison of peptide efficacy. The MIC was calculated as the lowest antibiotic (antimicrobial peptide) concentration at which growth of the assessed yeast or bacterium (microbe) was inhibited (inhibitory concentration IC90).

C. parapsilosis CBS #7 = format: cell-based, Candida parapsilosis; conditions: RPMI 1640 one-fourth strength
Description: as §1

Sporotrichium spp = format: cell-based; conditions: RPMI 1640 one-fourth strength
Description: as §1

[1] = system: Malassezia furfur CBS 9595; format: cell-based; conditions: RPMI 1640 one-fourth strength
Description: as §1

Fonsecaea pedrosoi = format: cell-based; conditions: RPMI 1640 one-fourth strength
Description: as §1

Altematria spp. = format: cell-based; conditions: RPMI 1640 one-fourth strength
Description: as §1

Aspergillus versicolor = format: cell-based; conditions: RPMI 1640 one-fourth strength
Description: as §1

Trichophyton rubrum = format: cell-based; conditions: RPMI 1640 one-fourth strength
Description: as §1

Nannizzia otae = format: cell-based; conditions: RPMI 1640 one-fourth strength
Description: as §1

Trichosporon beigelii = format: cell-based; conditions: RPMI 1640 one-fourth strength
Description: as §1

Entrobacter cloacae = format: cell-based; conditions: RPMI 1640 one-fourth strength
Description: as §1

[2] = system: Saccharomyces cerivisiae CMC-520; format: cell-based; conditions: RPMI 1640 one-fourth strength
Description: as §1

[3] = system: Staphylococcus aureus 29213; format: cell-based; conditions: RPMI 1640 one-fourth strength
Description: as §1

Trichophyton mucoides = format: cell-based; conditions: RPMI 1640 one-fourth strength
Description: as §1

[4] = system: M. guilliermondii CBS-2030 (Perugia); format: cell-based; conditions: RPMI 1640 one-fourth strength
Description: as §1

Streptococcus lactis = format: cell-based; conditions: RPMI 1640 one-fourth strength
Description: as §1

Proteus spp = format: cell-based; conditions: RPMI 1640 one-fourth strength
Description: as §1

Escherichia coli = format: cell-based; conditions: RPMI 1640 one-fourth strength
Description: as §1

Enterococcus faecalis = format: cell-based; conditions: RPMI 1640 one-fourth strength
Description: as §1

Mycobacterium avium = format: cell-based; conditions: RPMI 1640 one-fourth strength
Description: as §1

Absidia corymbifera = format: cell-based; conditions: RPMI 1640 one-fourth strength
Description: as §1

Streptococcus caseii = format: cell-based; conditions: RPMI 1640 one-fourth strength
Description: as §1

Moraxella catarrhalis = format: cell-based; conditions: RPMI 1640 one-fourth strength
Description: as §1

[5] = system: Trichophyton mentagrophytes; format: cell-based; conditions: RPMI 1640 one-fourth strength
Description: as §1

Aspergillus fumigatus = format: cell-based; conditions: RPMI 1640 one-fourth strength
Description: as §1

Geotrichium spp = format: cell-based; conditions: RPMI 1640 one-fourth strength
Description: as §1

Penicillium vermiculatum = format: cell-based; conditions: RPMI 1640 one-fourth strength
Description: as §1

Streptococcus mitis = format: cell-based; conditions: RPMI 1640 one-fourth strength
Description: as §1

Fusarium moniliforme = format: cell-based; conditions: RPMI 1640 one-fourth strength
Description: as §1

Aspergillus niger = format: cell-based; conditions: RPMI 1640 one-fourth strength
Description: as §1

Vibrio cholerae = format: cell-based; conditions: RPMI 1640 one-fourth strength
Description: as §1

Aspergillus nidulans = format: cell-based; conditions: RPMI 1640 one-fourth strength
Description: as §1

[6] = system: Streptocococcus mitis 033; format: cell-based; conditions: RPMI 1640 one-fourth strength
Description: as §1

Penicillium spp = format: cell-based; conditions: RPMI 1640 one-fourth strength
Description: as §1

Cryptococcus gattii = format: cell-based; conditions: RPMI 1640 one-fourth strength
Description: as §1

Dekkera bruxellensis = format: cell-based; conditions: RPMI 1640 one-fourth strength
Description: as §1

Penicillium pinophilum = format: cell-based; conditions: RPMI 1640 one-fourth strength
Description: as §1

Trichophyton spp = format: cell-based; conditions: Trichophyton spp (Table 1); RPMI 1640 one-fourth strength
Description: as §1

[7] = system: Cryptococcus uniguttulatus; format: cell-based; conditions: RPMI 1640 one-fourth strength
Description: as §1

Malassezia furfur spp. = format: cell-based; conditions: RPMI 1640 one-fourth strength
Description: as §1

[8] = system: Malassezia furfur CBS-4172; format: cell-based; conditions: RPMI 1640 one-fourth strength
Description: as §1

[9] = system: Penicillium spp. such as aff. Carbonarius; format: cell-based; conditions: RPMI 1640 one-fourth strength
Description: as §1

[10] = system: Malassezia furfur CBS 14141; format: cell-based; conditions: RPMI 1640 one-fourth strength
Description: as §1

Zygosaccharomyces bailii = format: cell-based; conditions: RPMI 1640 one-fourth strength
Description: as §1

With “GRRRRSVQWCA [hLF1-11, Gly Arg Arg Arg Arg Ser Val Gln Trp Cys Ala]” the “Inhibitory concentration MIC (MIC90)” value (C. parapsilosis CBS #61) was “MIC = 25-50 μg/mL”, the “Inhibitory concentration MIC (MIC90)” value (C. parapsilosis CBS #7) was “MIC = 25-50 μg/mL” and the “Inhibitory concentration MIC (MIC90)” value (Sporotrichium spp) was “MIC = 40 μg/ml”. The “Inhibitory concentration MIC (MIC90)” value [1] was “MIC = 25-50 μg/mL”, the “Inhibitory concentration MIC (MIC90)” value (Fonsecaea pedrosoi) was “MIC = 5 μg/ml” and the “Inhibitory concentration MIC (MIC90)” value (Altematria spp.) was “MIC = 16 μM”. The “Inhibitory concentration MIC (MIC90)” value (Aspergillus versicolor) was “MIC = 10 μg/ml”, the “Inhibitory concentration MIC (MIC90)” value (Trichophyton rubrum) was “MIC = 13-60 μg/ml” and the “Inhibitory concentration MIC (MIC90)” value (Nannizzia otae) was “MIC = 60 μg/ml”. The “Inhibitory concentration MIC (MIC90)” value (Trichosporon beigelii) was “MIC = 40 μg/ml”, the “Inhibitory concentration MIC (MIC90)” value (Entrobacter cloacae) was “MIC = 6.3 μg/ml” and the “Inhibitory concentration MIC (MIC90)” value [2] was “MIC = 50 μg/ml”. For the same sequence, the “Inhibitory concentration MIC (MIC90)” value [3] was “MIC = 3.1 μg/ml”, the “Inhibitory concentration MIC (MIC90)” value (Trichophyton mucoides) was “MIC = 12.5-50 μg/ml” and the “Inhibitory concentration MIC (MIC90)” value [4] was “MIC = 50 μg/mL”. The “Inhibitory concentration MIC (MIC90)” value (Streptococcus lactis) was “MIC = 3.1 μg/ml”, the “Inhibitory concentration MIC (MIC90)” value (Proteus spp) was “MIC = 6.3 μg/ml” and the “Inhibitory concentration MIC (MIC90)” value (Escherichia coli) was “MIC = 6.3 μg/ml”. The “Inhibitory concentration MIC (MIC90)” value (Enterococcus faecalis) was “MIC = 6.3 μg/ml”, the “Inhibitory concentration MIC (MIC90)” value (Mycobacterium avium) was “MIC = 50 μg/ml” and the “Inhibitory concentration MIC (MIC90)” value (Absidia corymbifera) was “MIC = 40 μg/ml”. The “Inhibitory concentration MIC (MIC90)” value (Streptococcus caseii) was “MIC = 3.1 μg/ml”, the “Inhibitory concentration MIC (MIC90)” value (Moraxella catarrhalis) was “MIC = 2 μg/ml” and the “Inhibitory concentration MIC (MIC90)” value [5] was “MIC = 6.3-45 μg/ml”. For the same sequence, the “Inhibitory concentration MIC (MIC90)” value (Aspergillus fumigatus) was “MIC = 2.5-25 μg/ml”, the “Inhibitory concentration MIC (MIC90)” value (Geotrichium spp) was “MIC = 50 μg/mL” and the “Inhibitory concentration MIC (MIC90)” value (Penicillium vermiculatum) was “MIC = 45 μg/ml”. The “Inhibitory concentration MIC (MIC90)” value (Streptococcus mitis) was “MIC = 3.1 μg/ml”, the “Inhibitory concentration MIC (MIC90)” value (Fusarium moniliforme) was “MIC = 2.5-5 μg/ml” and the “Inhibitory concentration MIC (MIC90)” value (Aspergillus niger) was “MIC = 50 μg/mL”. For the same sequence, the “Inhibitory concentration MIC (MIC90)” value (Vibrio cholerae) was “MIC = 12.5 μg/ml”, the “Inhibitory concentration MIC (MIC90)” value (Aspergillus nidulans) was “MIC = 2.5-12.5 μg/ml” and the “Inhibitory concentration MIC (MIC90)” value [6] was “MIC = 6.3 μg/ml”. The “Inhibitory concentration MIC (MIC90)” value (Penicillium spp) was “MIC = 12.5-50 μg/ml”, the “Inhibitory concentration MIC (MIC90)” value (Cryptococcus gattii) was “MIC = 64 μg/mL” and the “Inhibitory concentration MIC (MIC90)” value (Dekkera bruxellensis) was “MIC = 3.75-20 μM”. For the same sequence, the “Inhibitory concentration MIC (MIC90)” value (Penicillium pinophilum) was “MIC = 45 μg/ml”, the “Inhibitory concentration MIC (MIC90)” value (Trichophyton spp) was “MIC = 6.3-45 μg/ml” and the “Inhibitory concentration MIC (MIC90)” value [7] was “MIC = 6 μg/ml”. For the same sequence, the “Inhibitory concentration MIC (MIC90)” value (Malassezia furfur spp.) was “MIC = 12.5-50 μg/mL”, the “Inhibitory concentration MIC (MIC90)” value [8] was “MIC = 50 μg/ml” and the “Inhibitory concentration MIC (MIC90)” value [9] was “MIC = 45 μg/ml”. For the same sequence, the “Inhibitory concentration MIC (MIC90)” value [10] was “MIC = 12.5-50 μg/mL” and the “Inhibitory concentration MIC (MIC90)” value (Zygosaccharomyces bailii) was “MIC = 8 μM”.
